# From article PMC11145868, “Protein target similarity is positive predictor of in vitro antipathogenic activity: a drug repurposing strategy for Plasmodium falciparum” (Journal of Cheminformatics, 2024)
# Counter-ions that a name gives are not always drawn. Like-named read-outs stand apart in the source and are kept apart here.
# Legend:
# [1] = Mammalian cell cytotoxicity assay, HEK293T (CellTiter-Glo, 72 h); conditions: human, HEK293T cells
# P. falciparum Dd2-HLH [2] = assay: microbe, parasite or virus in culture; assay type: cell-based, Plasmodium falciparum; conditions: Plasmodium falciparum, read-out: Blood stage 72h EC50
# P. falciparum Dd2-HLH [3] = assay: microbe, parasite or virus in culture; assay type: cell-based, Plasmodium falciparum; conditions: Plasmodium falciparum
# [4] = system: P. berghei-luciferase sporozoites; assay: microbe, parasite or virus in culture; assay type: cell-based, Plasmodium berghei; conditions: Plasmodium berghei, liver-stage parasites
# [5] = Mammalian cell cytotoxicity assay, HepG2 (CellTiter-Glo, 72 h); conditions: human, HepG2 cells
# [6] = DD2, 48 h, read-out: Blood stage 48h EC50
# [7] = HepG2, 48 hours in culture, read-out: Liver stage 48h EC50
# [8] = DD2, Hec50, 48 h, read-out: Blood stage 48 h EC50
# [9] = 48 h in culture, read-out: Liver 48 h EC50
# [10] = DD2, P. falciparum blood-stage parasites, 72 hours in culture
# [11] = DD2, P. falciparum blood-stage parasites, 48 hours in culture, read-out: Blood stage 48h EC50
Structure (SMILES),CC50 at 72 h [1],"EC50 (P. falciparum Dd2-HLH [2]; DD2, 72 h)",EC50 (P. falciparum Dd2-HLH [3]; [6]),"EC50 [4, 7]",CC50 at 72 h [5],EC50 (P. falciparum Dd2-HLH [3]; [8]),"EC50 [4, 9]",EC50 (P. falciparum Dd2-HLH [2]; [10]),EC50 (P. falciparum Dd2-HLH [3]; [11]),"EC50 (P. falciparum Dd2-HLH [3]; DD2, stage and incubation time not given, read-out: EC50 (antiplasmodial, quoted in discussion from Supplementary Table 1))"
CN1CCC(CNc2ccc3ncc(-c4cccc(OC(F)(F)F)c4)n3n2)CC1 [SGI-1776],4580 nM,623 nM,482 nM,1790 nM,1040 nM,,,,,
CN(C)CCCN1c2ccccc2CCc2ccccc21 [Imipramine hydrochloride],> 9950 nM,963 nM,180 nM,> 10000 nM,> 9950 nM,,,,,
"COc1ccc(-c2nc(N3CCOCC3)c3sc(CN(C)c4ncc(C(=O)NO)cn4)cc3n2)cn1 [CUDC-907, reference compound]",27 nM,18 nM,8 nM,,3 nM,7.5 nM,39 nM,,,
"COc1ccc(-c2ccc3ncc4c(c3c2)n(-c2ccc(N3CCNCC3)c(C(F)(F)F)c2)c(=O)n4C)cn1 [NVP-BGT226, reference compound]",35 nM,6 nM,1 nM,1 nM,3 nM,0.6 nM,0.5 nM,,,
CC(=O)O[C@H]1C(=O)[C@@]2(C)[C@H]([C@H](OC(=O)c3ccccc3)[C@]3(O)C[C@H](OC(=O)[C@H](O)[C@@H](NC(=O)c4ccccc4)c4ccccc4)C(C)=C1C3(C)C)[C@]1(OC(C)=O)CO[C@@H]1C[C@@H]2O [Paclitaxel],> 9950 nM,186 nM,164 nM,7530 nM,7040 nM,,,,,
"COC1=C(C)C(=O)C2=C(C1=O)[C@@H](COC(N)=O)[C@@]1(OC)[C@H]3N[C@H]3CN21 [mitomycin A, reference compound]",362 nM,,,1360 nM,32 nM,,,18 nM,38 nM,37.7 nM
COc1cc(N2CCC(N3CCN(C)CC3)CC2)ccc1Nc1ncc(Cl)c(Nc2ccccc2P(C)(C)=O)n1 [Brigatinib],1390 nM,346 nM,99 nM,3330 nM,136 nM,,,,,
COCCNCc1ccc(-c2cc3nccc(Oc4ccc(NC(=O)C5(C(=O)Nc6ccc(F)cc6)CC5)cc4F)c3s2)nc1 [MG-516],2250 nM,673 nM,144 nM,2180 nM,1460 nM,,,,,
N[C@H](C(=O)O)[C@@H]1CC(Cl)=NO1 [Acivicin],7730 nM,545 nM,209 nM,1100 nM,1700 nM,,,,,
COc1cccc2c1C(=O)c1c(O)c3c(c(O)c1C2=O)C[C@@](O)(C(=O)CO)C[C@@H]3O[C@H]1C[C@H](N)[C@H](O)[C@H](C)O1 [Doxorubicin],74 nM,250 nM,65 nM,1720 nM,44 nM,,,,,
"CO[C@H]1C(=O)[C@]2(C)[C@@H](OC)C[C@H]3OC[C@@]3(OC(C)=O)[C@H]2[C@H](OC(=O)c2ccccc2)[C@]2(O)C[C@H](OC(=O)[C@H](O)[C@@H](NC(=O)OC(C)(C)C)c3ccccc3)C(C)=C1C2(C)C [Cabazitaxel, reference compound]",> 9950 nM,8 nM,,,784 nM,6 nM,43 nM,,,
CN(c1ccc(Cl)cc1)c1cc[n+](Cc2ccc(-c3ccc(C[n+]4ccc(N(C)c5ccc(Cl)cc5)c5ccccc54)cc3)cc2)c2ccccc12 [TCD-717],1930 nM,714 nM,63 nM,102 nM,4770 nM,,,,,
C[C@]12O[C@H](C[C@]1(O)CO)n1c3ccccc3c3c4c(c5c6ccccc6n2c5c31)CNC4=O [Lestaurtinib],551 nM,,,1020 nM,29 nM,,,259 nM,88 nM,
CC1=C(c2ccc(O)cc2)[C@H](c2ccc(OCCN3CCCCC3)cc2)Oc2cc(O)ccc21 [Acolbifene],2990 nM,728 nM,218 nM,2830 nM,6210 nM,,,,,
